According to patent US10245257B2, “Anti-infective methods, compositions, and devices” (Dow Pharmaceutical Sciences, Inc., priority 2013, dated 2019):
Where two headings read alike, the source gives them in different places.

What was measured:
[1] = test system: T. mentagrophytes, T. rubrum and C. albicans; assay: Drug resistance development in vitro by serial passage of fungal cultures; format: cell-based; settings: serial passage in the presence of sub-growth inhibitory concentrations
Text: Efinaconazole drug resistance development was studied in vitro against T. mentagrophytes, T. rubrum and C. albicans. […] The clinical significance of these in vitro results is unknown.

CYP2C9 = CYP2C9 (Homo sapiens, UniProt P11712); assay: biochemical; format: in vitro ADME
Text: The 2006 Food and Drug Administration Drug Interaction Studies—Study Design, Data Analysis, and Implications for Dosing and Labeling draft guidance recommends clinical evaluation for drugs that are CYP inhibitors if the mean steady state Cmax/Ki is greater than 0.1.

[2] = Pharmacokinetic study in severe onychomycosis patients, once daily for 28 days; format: in vivo, human; settings: for AUC(0-t): read-out: AUC24h; for Cmax: mean +/- SD
Method: Systemic absorption of efinaconazole in 18 […] patients with severe onychomycosis was determined after application of IDP-108 (10% efinaconazole) once daily for 28 days to patients' 10 toenails and adjacent skin. Specifically, two single-center, open-label studies in healthy volunteers and severe onychomycosis patients.
A separate single-center, open-label study to evaluate safety and PK of efinaconazole and its H3 metabolite in 20 patients with severe toenail onychomycosis also was conducted. The study enrolled men and women 18-70 years of age who had clinical diagnoses of stable or exacerbating severe DLSO affecting ≥80% of the area of both great toenails. The great toenails had evidence of toenail growth, and at least four toenails other than the great toenails were also affected by onychomycosis. A positive microscopic examination with potassium hydroxide (KOH) for the hyphae associated with dermatophytes was obtained for at least one great toenail at the screening visit.
Efinaconazole 10% solution (0.42 mL/subject) was applied topically, unoccluded, once daily in the morning for 28 days to all 10 toenails by a trained nurse or study technician, including to the toenail folds, toenail bed, hyponychium, and approximately 0.5 cm of skin around the toenail in all directions to ensure they were completely covered.
Blood samples were collected at predose and at 1, 2, 4, 6, 8, 10, 12, 16, and 24 hours postdose on days 1, 14, and 28. Blood was processed to plasma and stored frozen until analysis.
(§1) Plasma concentrations of efinaconazole and its major metabolite H3 were determined by LC-MS-MS at multiple timepoints. Plasma concentrations of efinaconazole and H3 were determined using a validated LC-MS-MS method. […] The concentration of efinaconazole in plasma was determined at multiple time points over the course of 24-hour periods on days 1, 14, and 28. Plasma concentrations below the lower limit were set to zero for PK analyses. Pharmacokinetic parameters were calculated from individual plasma concentrations, whenever possible, using noncompartmental analysis in WinNonlin (Pharsight, Sunnyvale, Calif., USA), and included Cmax (observed peak drug concentration), Tmax (time at which Cmax occurs), Cmin (observed minimum drug concentration), t1/2 (apparent half-life), and AUC (area under the concentration-time curve).

CHL cell = format: cell-based
bacterial = assay: Bacterial reverse mutation assay; format: cell-based
[3] = set-up: species or system rats; settings: rat, in vivo, sc
[4] = mouse, in vivo
[5] = Pharmacokinetic study in healthy volunteers, topical application to all 10 toenails; format: in vivo, human; settings: for Cmax: mean +/- SD; for AUC(0-t): read-out: AUC24h
Method: In […] patients, efinaconazole 10% solution (IDP-108) was applied topically to all 10 toenails (0.42 mL total daily dose volume) administered as single and then 7 daily doses to 10 healthy volunteers, and once daily for 28 days to 18 severe onychomycosis patients. The efinaconazole 10% solution (0.42 mL/subject) was applied topically in the morning, unoccluded (i.e., without occluding, blocking or covering the nail with, for example, adhesive tape, bandage, dressing, sealant, etc.), by a trained nurse or study technician to all 10 toenails as a single dose (day 1), and seven consecutive daily doses (day 4 through day 10). A volume of 90 μL was applied on each great toenail and 30 μL on each of the remaining 8 toenails. There were no study drug applications on days 2 and 3.
Blood samples were collected at pre-dose, and 1, 2, 4, 6, 8, 10, 12, 16, 24, 28, 32, 36, 48, and 72 hours after dosing on days 1 and 10; and at pre-dose on days 6 and 8. Blood was processed to plasma and stored frozen until analysis.
as §1

Sequence of CYP2C9 (P11712 whole entry): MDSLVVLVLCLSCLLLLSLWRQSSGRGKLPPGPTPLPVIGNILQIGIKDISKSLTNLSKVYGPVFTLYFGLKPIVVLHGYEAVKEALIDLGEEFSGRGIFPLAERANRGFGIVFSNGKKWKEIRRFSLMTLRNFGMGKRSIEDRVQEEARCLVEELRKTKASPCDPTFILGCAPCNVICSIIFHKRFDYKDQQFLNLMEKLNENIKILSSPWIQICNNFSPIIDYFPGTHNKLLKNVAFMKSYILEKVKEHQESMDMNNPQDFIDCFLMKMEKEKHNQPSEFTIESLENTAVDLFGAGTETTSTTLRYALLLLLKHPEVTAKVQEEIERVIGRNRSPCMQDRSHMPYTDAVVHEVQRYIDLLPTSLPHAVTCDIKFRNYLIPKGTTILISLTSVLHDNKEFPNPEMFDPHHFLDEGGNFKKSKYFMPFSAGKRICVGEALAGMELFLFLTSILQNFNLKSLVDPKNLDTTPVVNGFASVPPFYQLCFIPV

For C=C1CCN([C@H](C)[C@](O)(Cn2cncn2)c2ccc(F)cc2F)CC1 [efinaconazole, (2R,3R)-2-(2,4-difluorophenyl)-3-(4-methylenepiperidin-1-yl)-1-(1H-1,2,4-triazol-1-yl) butan-2-ol], the “increase of the MIC” value [1] was “up to 4 fold”, the Ki (CYP2C9) was 261 nM and the “steady state Cmax/Ki” value (CYP2C9) was 0.007. For the same molecule, the “tolerability, drug-related adverse events” value ([2]; both PK studies (healthy volunteers and onychomycosis patients)) was “well tolerated”, the Tmax ([2]; both sexes, human, plasma, topical, 0.42 mL/subject, onychomycosis patients, Day 1) was 23.9 h and the AUC(0-t) ([2]; both sexes, human, plasma, topical, 0.42 mL/subject, onychomycosis patients, Day 1, mean +/- SD) was 1.79 ng·h/mL. It also gave a Cmax ([2]; both sexes, human, plasma, topical, 0.42 mL/subject, onychomycosis patients, Day 1, plasma) of 0.23 ± 0.18 ng/mL, a Tmax ([2]; both sexes, human, plasma, topical, 0.42 mL/subject, onychomycosis patients, Day 14) of 4.55 h and an AUC(0-t) ([2]; both sexes, human, plasma, topical, 0.42 mL/subject, onychomycosis patients, Day 14, mean +/- SD) of 10.9 ± 5.9 ng·h/mL. The Cmax ([2]; both sexes, human, plasma, topical, 0.42 mL/subject, onychomycosis patients, Day 14, plasma) was 0.62 ± 0.23 ng/mL, the Tmax ([2]; both sexes, human, plasma, topical, 0.42 mL/subject, onychomycosis patients, Day 28) was 16 h and the AUC(0-t) ([2]; both sexes, human, plasma, topical, 0.42 mL/subject, onychomycosis patients, Day 28, mean +/- SD) was 12.2 ng·h/mL. It also gave a Cmax ([2]; both sexes, human, plasma, topical, 0.42 mL/subject, onychomycosis patients, Day 28, plasma) of 0.67 ng/mL, a concentration at 2 weeks after the last dose ([2]; both sexes, human, plasma, topical, 0.42 mL/subject, onychomycosis patients, detected in several subjects, read-out: mean plasma concentrations two weeks after the last dose) of 0.07 ng/mL and a Cmin ([2]; onychomycosis patients, Day 14, mean +/- SD) of 0.33 ± 0.17 ng/mL. For the same molecule, the Cmin ([2]; onychomycosis patients, Day 28, mean +/- SD) was 0.36 ± 0.20 ng/mL, the clastogenicity (CHL cell) was “not clastogenic” and the mutagenicity (bacterial) was “not mutagenic”. The “effect on estrous cycle in females” value ([3]; 5 mg/kg/day) was “did not have effects”, the “effect on estrous cycle in females” value ([3]; 25 mg/kg/day) was “delayed the estrous cycle” and the clastogenicity [4] was “not clastogenic”. For the same molecule, the “steady-state reached on Day” value ([5]; fifth topical application, both toenails and back skin) was 8 days, the “Systemic exposure (AUC24h) on day 10 relative to day 1” value ([5]; healthy volunteers) was “approximately 3.6 fold” and the Cmax ([5]; healthy volunteers, Day 1 (single dose), plasma) was 0.38 ± 0.39 ng/mL. For the same molecule, the Cmax ([5]; healthy volunteers, Day 10 (7th daily dose), plasma) was 0.54 ± 0.22 ng/mL, the Cmin ([5]; healthy volunteers, Day 10, mean +/- SD) was 0.47 ± 0.18 ng/mL and the average plasma concentration ([5]; healthy volunteers, stated after the day 10 range) was 0.37 ng/mL. The Cmax ([5]; human, plasma, topical, 0.42 mL/subject, healthy volunteers, Day 1 (single dose), plasma, read-out: Cmax) was 0.382 ng/mL, the AUC(0-t) ([5]; human, plasma, topical, 0.42 mL/subject, healthy volunteers, Day 1, mean +/- SD) was 2.64 ± 2.85 ng·h/mL and the Tmax ([5]; human, plasma, topical, 0.42 mL/subject, healthy volunteers, Day 1, value [range]) was 24 h. The Cmax ([5]; human, plasma, topical, 0.42 mL/subject, healthy volunteers, Day 10 (7th daily dose), plasma, read-out: Cmax) was 0.542 ng/mL, the AUC(0-t) ([5]; human, plasma, topical, 0.42 mL/subject, healthy volunteers, Day 10, mean +/- SD) was 9.48 ± 3.86 ng·h/mL and the Tmax ([5]; human, plasma, topical, 0.42 mL/subject, healthy volunteers, Day 10, value [range]) was 10 h. For the same molecule, the concentration at 1 day ([5]; human, plasma, topical, 0.42 mL/subject, healthy volunteers, day 1, read-out: plasma concentration range) was 0 to 1.11 ng/mL and the concentration at 10 day ([5]; human, plasma, topical, 0.42 mL/subject, healthy volunteers, day 10, read-out: plasma concentration range) was 0.25 to 0.85 ng/mL.
